Patent publication US20070179155A1, “N-phenyl-piperazine derivatives and methods of prophylaxis or treatment of 5ht2c receptor associated diseases” (priority 2003, published 2007)

Tests used:
human 5HT2C receptor = molecular target: T1, human 5HT2C receptor (Homo sapiens, UniProt P28335); test: Intracellular IP3 accumulation assay (IP Accumulation Assay); type: cell-based; details: HEK293 cells transfected with human 5HT2C receptor cDNA
T1 construct: expressed in transfected cells; host or cells: HEK293
T1 sequence (P28335 33-458): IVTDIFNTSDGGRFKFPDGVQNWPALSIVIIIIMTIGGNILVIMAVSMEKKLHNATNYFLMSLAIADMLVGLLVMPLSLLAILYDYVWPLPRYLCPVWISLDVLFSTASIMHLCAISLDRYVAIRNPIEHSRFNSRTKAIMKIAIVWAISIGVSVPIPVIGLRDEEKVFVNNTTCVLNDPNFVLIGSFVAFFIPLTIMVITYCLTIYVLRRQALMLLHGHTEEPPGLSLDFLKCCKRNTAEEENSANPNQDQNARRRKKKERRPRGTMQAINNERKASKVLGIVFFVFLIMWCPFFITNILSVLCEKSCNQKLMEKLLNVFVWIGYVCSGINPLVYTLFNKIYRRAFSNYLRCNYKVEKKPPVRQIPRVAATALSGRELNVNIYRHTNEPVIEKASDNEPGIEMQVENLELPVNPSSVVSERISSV
Protocol: HEK293 cells were transfected in 15 cm sterile dishes with or without (control) 16 ug of human 5HT2C receptor cDNA [for example see, Saltzman, A. G., et al. Biochem. Biophys. Res. Commun. 181, 1469-1478 (1991)] using 25 ul of lipofectamine. Cells were then incubated for 3-4 hours at 37° C./5% CO2 and then transfection media was removed and replaced with 100 ul of DMEM. Cells were then plated onto 100 cm sterile dishes. The next day cells were plated into 96 well PDL microtiter plates at a density of 55K/0.2 ml. Six hours latter, media was exchanged with [^3H]inositol (0.25 uCi/well) in inositol free DMEM and plates were incubated at 37° C./5% CO2 overnight. The next day, wells were aspirated and 200 ul of DMEM containing test compound, 10 uM pargyline, and 10 mM LiCl was added to appropriate wells. Plates were then incubated at 37° C./5% CO2 for three hours followed aspiration and by addition of fresh ice cold stop solution (1M KOH, 19 mM Na-borate, 3.8 mM EDTA) to each well. Plates were kept on ice for 5-10 min and the wells were neutralized by addition of 200 ul of fresh ice cold neutralization solution (7.5% HCl). Plates were then frozen until further processing is desired. The lysate was then transferred into 1.5 ml Eppendorf tubes and 1 ml of chloroform/methanol (1:2) was added/tube. […]

5HT2A receptor = 5HT2A receptor (Homo sapiens, UniProt P28223); test: EC50 against the 5HT2A receptor (selectivity); type: cell-based
5HT2B receptor = 5HT2B receptor (Homo sapiens, UniProt P41595); test: Activity against the 5HT2B receptor (selectivity); type: cell-based
basal food intake = test: Inhibition of basal food intake in rats; type: in vivo, Male Sprague-Dawley rats; details: p.o.; for ED50: Rattus norvegicus, po
Protocol: Male Sprague-Dawley rats (225-325 g) were accustomed to a reverse day/night schedule (lights on 6:30 pm to 10:30 am) for at least 10 days prior to testing. On the test day, the animals were weighed and placed into individual cages (no bedding) at 9:00 am with free access to water. At 10:00 am, animals were injected with test compound or vehicle (2 ml/kg, p.o.), with treatment groups counter-balanced according to animal weights. Immediately upon lights out at 10:30 am, each animal was presented with a pre-weighed amount of food in a dish. Food consumption over different time points was then determined by weighing the food cup at 2, 4, 6 and 22 hrs after the food was presented. Thus, food consumption was measured at 2.5, 4.5, 6.5, and 22.5 hrs post-injection.

5HT2B receptor, sequence (P41595 whole entry): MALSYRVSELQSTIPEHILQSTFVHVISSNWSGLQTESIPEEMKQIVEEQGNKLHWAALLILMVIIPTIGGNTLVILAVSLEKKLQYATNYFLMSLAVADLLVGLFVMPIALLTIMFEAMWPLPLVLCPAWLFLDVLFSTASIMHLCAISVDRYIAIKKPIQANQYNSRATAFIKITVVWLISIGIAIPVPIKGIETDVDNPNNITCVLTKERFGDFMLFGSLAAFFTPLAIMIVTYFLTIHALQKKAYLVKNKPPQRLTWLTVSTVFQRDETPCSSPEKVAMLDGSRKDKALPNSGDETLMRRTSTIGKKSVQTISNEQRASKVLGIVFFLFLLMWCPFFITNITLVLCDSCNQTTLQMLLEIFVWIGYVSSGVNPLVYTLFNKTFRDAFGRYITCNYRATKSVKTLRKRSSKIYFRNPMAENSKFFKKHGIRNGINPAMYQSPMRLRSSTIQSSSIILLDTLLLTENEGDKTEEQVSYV
5HT2A receptor, sequence (P28223 whole entry): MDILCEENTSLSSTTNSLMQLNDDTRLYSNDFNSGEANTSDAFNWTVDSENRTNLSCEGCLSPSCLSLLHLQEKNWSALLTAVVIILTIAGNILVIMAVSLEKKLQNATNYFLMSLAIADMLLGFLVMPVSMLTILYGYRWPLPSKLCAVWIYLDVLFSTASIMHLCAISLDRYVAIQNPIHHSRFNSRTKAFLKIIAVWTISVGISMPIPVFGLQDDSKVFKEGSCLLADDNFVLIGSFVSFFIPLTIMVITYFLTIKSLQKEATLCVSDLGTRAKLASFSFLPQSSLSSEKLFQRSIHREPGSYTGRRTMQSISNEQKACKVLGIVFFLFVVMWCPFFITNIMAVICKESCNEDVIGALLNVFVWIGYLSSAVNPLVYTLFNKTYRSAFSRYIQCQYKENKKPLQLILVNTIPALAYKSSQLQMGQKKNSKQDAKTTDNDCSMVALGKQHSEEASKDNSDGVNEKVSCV

Structure (SMILES) | EC50 (human 5HT2C receptor) [nM] | EC50 (5HT2A receptor) [nM] | activity against the 5HT2B receptor (5HT2B receptor) | ED50 (basal food intake; 2 h, 2 hours after food presentation) [µmol/kg] | ED50 (basal food intake; 4 h, 4 hours after food presentation) [µmol/kg] | ED50 (basal food intake; 6 h, 6 hours after food presentation) [µmol/kg] | ED50 (basal food intake; 22 h, 22 hours after food presentation) [µmol/kg] | effect on food intake relative to vehicle-treated controls (basal food intake; all doses, first 4 hr after food presentation) | duration of food intake inhibition (basal food intake; highest dose tested)
C[C@@H]1CNCCN1c1cc(Cl)ccc1F [Compound 44, (R)-1-(5-Chloro-2-fluoro-phenyl)-2-methyl-piperazine] | 8 | 529 | essentially inactive | 33 | 58 | 97 | 441 | inhibited food intake relative to vehicle-treated controls | maintained to 22 hrs after food presentation
C[C@@H]1CNCCN1c1cccc(Cl)c1F [Compound 23, (R)-1-(3-Chloro-2-fluoro-phenyl)-2-methyl-piperazine] | 7.4 | 44 | essentially inactive |  |  |  |  |  | 
